Active and inactive are the calls of the source. The calls are words filed in the database; no cut-off is given here.
What was measured:
[1] = Inhibition of SARS-CoV-2 nsp10 (1 to 139 residues)/nsp16 (1 to 298 residues) expressed in Escherichia coli BL21(DE3)RIL cells using RNA and [3H]SAM as substrate incubated for 1 hrs by SPA-based assay; set-up: species or system Severe acute respiratory syndrome coronavirus 2
[2] = system: Severe acute respiratory syndrome coronavirus 2; assay: Inhibition of SARS-CoV-2 nsp10/nsp16 2'-O-methyltransferase activity expressed in NiCo21 (DE3) cells using m7GpppAUUAA and S-adenosylmethionine as substrate at 10 uM incubated for 25 mins by luminescence based MTase Glo assay
Vero = assay: (§1) Cytotoxicity against African green monkey Vero cells assessed as inhibition of cell proliferation incubated for 2 to 4 days by CellTiter 96 non-radioactive cell proliferation assay; format: toxicity, cell-based; details: chlorocebus sabaeus, vero; time 2-4 day
[3] = Inhibition of SARS-CoV-2 nsp10/nsp16 2'-O-methyltransferase activity expressed in NiCo21 (DE3) cells using m7GpppAUUAA and S-adenosylmethionine as substrate by filter binding assay; set-up: species or system Severe acute respiratory syndrome coronavirus 2
PBMC = assay: Cytotoxicity against human PBMC cells assessed as inhibition of cell proliferation incubated for 2 to 4 days by CellTiter 96 non-radioactive cell proliferation assay; format: toxicity, cell-based; details: time 2-4 day
SARS-CoV-2 = assay: Antiviral activity against SARS-CoV-2 USA-WA1/2020 infected in african green monkey Vero cells assessed as reduction in viral replication by qRT-PCR analysis; format: functional, organism-based; details: Severe acute respiratory syndrome coronavirus 2, USA-WA1/2020, Vero
[4] = as §1; format: toxicity, cell-based; details: chlorocebus sabaeus, Vero cells; time 2-4 day

Structure (SMILES) | IC50 [1] | inhibition [2] | CC50 (Vero) | IC50 [3] | CC50 (PBMC) | EC50 (SARS-CoV-2) | CC50 [4]
Nc1ncnc2c1ncn2[C@@H]1O[C@H](C[C@@H](N)CC[C@H](N)C(=O)O)[C@@H](O)[C@H]1O [SINEFUNGIN] | 3.4 µM | Active | – | – | – | – | –
CC1=CC[C@H]2[C@H](C1)c1c(O)cc(/C=C/c3ccc(O)cc3)cc1OC2(C)C | – | Active | 22.3 µM | 13.3 µM | 53.4 µM | 7 µM | –
CCC(CC)COC(=O)[C@H](C)N[P@](=O)(OC[C@H]1O[C@@](C#N)(c2ccc3c(N)ncnn23)[C@H](O)[C@@H]1O)Oc1ccccc1 | – | – | – | – | 2 µM | 2.3 µM | > 100 µM
CC1=CC[C@H]2[C@H](C1)c1c(/C=C/c3ccc(O)cc3)cc(O)cc1OC2(C)C | – | Active | 11.9 µM | 13.6 µM | 60.4 µM | 4.7 µM | –
